Results from patent US3930838A, “S-benzyl-N,N-disec-butylthiocarbamate and its use as a rice field herbicide and a rice growth stimulant” (priority 1970, dated 1976).

Tests used:
[1] = test system: rice; assay: Open field test on rice, biometric controls (Example 10); assay type: in vivo, rice cv. RIBE; settings: 36 days
Protocol: (§1) In the province of Novara, Italy, a test was performed outdoors in clay soil. For each treatment, a 600 m^2 plot provided with independent water feed was prepared. After soil working and leveling, the treatment was effected on Apr. 23, 1970, using formulations in emulsifiable oils of M3432 and of molinate, sprayed by means of mechanical devices. Only the plot treated with molinate was harrowed just after treatment in order to incorporate the product and to avoid any losses of same due to volatilization. Immediately afterwards, the plots were flooded to a water level of 10-12 cm.
(§2) Pre-germinated cv. RIBE rice was mechanically sowed broadcast on Apr. 25, 1970.
36 Days after the treatment, 50 rice plants were taken at random from each plot and subjected to biometric controls.

[2] = test system: rats; settings: os, literature values; cited from earlier work
[3] = test system: rice; assay: Post emergence outdoor plot test No. 3, rice (Example 16); assay type: in vivo; settings: 45 days, emulsifiable oil
Protocol: Some plots, 12 m^2 each, delimited by artificial levees, were prepared outdoors. AFter soil working and grading, the plots were sowed with Echinocloa spp. on May 18, 1970 and then flooded to a height of 10 cm. with water on May 20, 1970. The same day, rice was sowed in quantities corresponding to 150 kg. of seed per ha. Both rice and Echinocloa emerged from the soil 5 days after the flooding.
When the barnyard grass reached an average height of 12-14 cm., the treatment was effected by uniformly spraying the flooded water surface.
Products being tested: M3432 and molinate, in emulsifiable oil base.
Doses: 0, 4, and 6 kg./ha.
The first effects on Echinocloa spp. were noticed for both products 7 days after treatment, 45 Days after treatment the following was observed: […]

[4] = test system: Setaria italica; assay: Weeding activity in screening conditions (Example 12); assay type: in vivo; settings: 25 days
Text: (§3) Two sets of small square tanks having 11 cm. sides, filled with field earth admixed with 30% of sand, were sowed at a depth of 0.5-1 cm. with the following grass species: Echinocloa crus galli, Setaria italica, Alopecurus myosiuroides, Lolium italicum, Digitaria sanguinalis, Avena fatua, Agrostis segetum, and Dactylis glomerata. After sowing, the earth surface of the tanks was uniformly sprayed with 2.4 cc./tank of hydroacetone solutions containing, respectively, 0, 0.05, 0.10, 0.20 and 0.30% of M3432 and of molinate, respectively, in order to obtain doses thereof corresponding to 0, 1, 2, 4, and 6 kg./ha., respectively.
(§4) Only one set of small tanks was covered with a 1 cm. layer of earth just after the treatment. All of the tanks were kept in an air-conditioned chamber identical with that described in Example 7, and were watered every day. 25 days after the treatment, the final results were examined, attributing to each treatment the following scale of values: […]

[5] = test system: Echinocloa crus galli; assay: as above; assay type: in vivo; settings: 25 days
Text: as §3, §4

[6] = test system: Dactylis glomerata; assay: as above; assay type: in vivo; settings: 25 days
Text: as §3, §4

[7] = test system: Rice plants; assay: Open field test on rice, periodical checks of the plots (Example 10); assay type: in vivo, rice cv. RIBE; settings: two months
Protocol: as §1, §2
Periodical checks were carried out on the four plots. […]

[8] = test system: Echinocloa spp.; assay: Activity on Echinocloa in flooded hothouse boxes, first sowing (Example 14); assay type: in vivo; settings: 24 days
Protocol: A test was arranged in a hothouse on a set of boxes having a 1,000 cm^2 internal surface. 18 Kg. of sieved rice field earth were put into each box. After leveling, the earth surfaces of each of a set of six boxes were uniformly sprayed with hydroacetone solutions containing, respectively, 0, 0.5, 0.75, 1, 1.25, and 1.5% of M3432. […] Each box was flooded with a 10 cm. water layer measured from the earth surface. The sowing was carried out immediately afterwards with a pre-germinated (cv) RIBE rice seed, employing a quantity of 40 seeds per box.
The same method described in Example 9 was followed, the only variation being in sowing Echinocloa spp. (40 slightly pregerminated seeds per box) instead of rice.
24 Days after the treatment, the results were observed.

[9] = test system: rice; assay: Outdoor comparison of rice stimulating action of M3432 with lower homologues and isomers (Example 11); assay type: in vivo; settings: 21 days after sowing
Protocol: In the province of Pavia, a test was carried out with outdoor treatments in a loam soil, on rice plots having a 12 m^2 surface each.
Formulations of 20% M3432 in emulsifiable oil were compared with 20% formulations in emulsifiable oil of S-benzyl-N,N-diisopropyl thiocarbamate; S-benzyl-N,N-diisobutylthiocarbamate; and S-benzyl-N,N-din.butylthiocarbamate employing quantities of 4, 6 and 20 kg./ha.
For each treatment, the results were gathered on 20 plants 21 days after the sowing.

[10] = test system: Echinocloa spp.; assay: Post emergence hothouse test No. 2 (Example 16); assay type: in vivo; settings: 4, 6, and 8 kg./ha., 26 days; plants max. 10 cm. at treatment
Protocol: A set of boxes having a 1,000 cm^2 internal surface was prepared in a hothouse according to the method described in Example 9. The boxes were sowed with Echinocloa spp. (70 seeds per box). After saturation of the soil, and as soon as the infesting plants emerged from the soil, the boxes were flooded with a 7 cm. layer of water. When the plants reached a maximum height of 3-4 cm., the treatment was effected by spraying the flooding water surfaces with hydroacetone solutions according to the modalities employed in Example 9. 3 days after the treatment, the following results were observed:
A second test was carried out in the same manner as Test No. 1 except that the treatment took place when the infesting plants had reached a maximum of 10 cm. 26 days after such treatment, the following was observed: […]

[11] = Treated surface covered with 1 cm earth layer, 2 kg./ha.
[12] = Treated surface covered with 1 cm earth layer, 4 kg./ha.
[13] = Treated surface covered with 1 cm earth layer, 6 kg./ha.

Structure (SMILES): CCSC(=O)N1CCCCCC1 [Molinate, ethyl-1-hexamethylene-imino-carbothiolate, reference compound]
- Main root ([1]; 4 kg./ha.): 7.67 cm.
- Roots, average weight per plant on dry basis ([1]; 4 kg./ha.): 1.866 g
- Secondary roots ([1]; 4 kg./ha.): 9.06 no.
- Shoot ([1]; 4 kg./ha.): 25.72 cm.
- Shoot, average weight per plant on dry basis ([1]; 4 kg./ha.): 3.257 g
- Total, average weight per plant on dry basis ([1]; 4 kg./ha.): 5.123 g
- Acute toxicity LD50 [2]: 500 to 725 mg/kg
- Effect on rice ([3]; 4 kg./ha.): Stronger than the control
- Effect on rice ([3]; 6 kg./ha.): Stronger than the control
- Weeding activity ([4]; Surface, 2 kg./ha.): 0/1
- Weeding activity ([4]; Surface, 4 kg./ha.): 0/1
- Weeding activity ([4]; Surface, 6 kg./ha.): 0/1
- Weeding activity [4, 11]: 3
- Weeding activity [4, 12]: 3
- Weeding activity [4, 13]: 3
- Weeding activity ([5]; Surface, 2 kg./ha.): 2
- Weeding activity ([5]; Surface, 4 kg./ha.): 1/2
- Weeding activity ([5]; Surface, 6 kg./ha.): 1/2
- Weeding activity [5, 11]: 3
- Weeding activity [5, 12]: 3
- Weeding activity [5, 13]: 3/4
- Weeding activity ([6]; Surface, 2 kg./ha.): 1/2
- Weeding activity ([6]; Surface, 4 kg./ha.): 1/2
- Weeding activity ([6]; Surface, 6 kg./ha.): 3
- Weeding activity [6, 11]: 3
- Weeding activity [6, 12]: 4/3
- Weeding activity [6, 13]: 4/3
- Average height ([7]; 4 kg./ha.): 35-45 cm.
- Rice plants appearance ([7]; 4 kg./ha.): normal
- Stand (number of tillers per unit of area) ([7]; 4 kg./ha.): normal

Structure (SMILES): CCC(C)N(C(=O)SCc1ccccc1)C(C)CC (stereo not drawn) [M3432, S-benzyl-N,N-disec.butylthiocarbamate]
- Shoot ([8]; 2 kg./ha.): 8.5 cm.
- Stand ([8]; 2 kg./ha.): 2.5%
- Shoot ([8]; 4 kg./ha.): 0 cm.
- Stand ([8]; 4 kg./ha.): 0%
- Shoot ([8]; 6 kg./ha.): 0 cm.
- Stand ([8]; 6 kg./ha.): 0%
- Shoot ([8]; 8 kg./ha.): 0 cm.
- Stand ([8]; 8 kg./ha.): 0%
- Main root ([1]; 4 kg./ha.): 9.29 cm.
- Roots, average weight per plant on dry basis ([1]; 4 kg./ha.): 2.431 g
- Secondary roots ([1]; 4 kg./ha.): 9.64 no.
- Shoot ([1]; 4 kg./ha.): 29.22 cm.
- Shoot, average weight per plant on dry basis ([1]; 4 kg./ha.): 4.073 g
- Total, average weight per plant on dry basis ([1]; 4 kg./ha.): 6.504 g
- Main root ([1]; 6 kg./ha.): 10.19 cm.
- Roots, average weight per plant on dry basis ([1]; 6 kg./ha.): 3.123 g
- Secondary roots ([1]; 6 kg./ha.): 10.42 no.
- Shoot ([1]; 6 kg./ha.): 30.17 cm.
- Shoot, average weight per plant on dry basis ([1]; 6 kg./ha.): 4.209 g
- Total, average weight per plant on dry basis ([1]; 6 kg./ha.): 7.341 g
- Main roots ([9]; 4 kg./ha.): 5.55 No.
- Secondary roots ([9]; 4 kg./ha.): 2.52 No.
- Shoot ([9]; 4 kg./ha.): 7.11 cm.
- Main roots ([9]; 6 kg./ha.): 5.73 No.
- Secondary roots ([9]; 6 kg./ha.): 2.63 No.
- Shoot ([9]; 6 kg./ha.): 7.34 cm.
- Main roots ([9]; 20 kg./ha.): 6.76 No.
- Secondary roots ([9]; 20 kg./ha.): 2.63 No.
- Shoot ([9]; 20 kg./ha.): 7.68 cm.
- Weeding activity ([4]; Surface, 1 kg./ha.): 3
- Weeding activity ([4]; Surface, 2 kg./ha.): 3
- Weeding activity ([4]; Surface, 4 kg./ha.): 4/3
- Weeding activity ([4]; Surface, 6 kg./ha.): 4/3
- Weeding activity [4, 11]: 3/4
- Weeding activity [4, 12]: 4/3
- Weeding activity [4, 13]: 4
- Weeding activity ([5]; Surface, 1 kg./ha.): 3
- Weeding activity ([5]; Surface, 2 kg./ha.): 3/4
- Weeding activity ([5]; Surface, 4 kg./ha.): 4/3
- Weeding activity ([5]; Surface, 6 kg./ha.): 4
- Weeding activity [5, 11]: 4/3
- Weeding activity [5, 12]: 4
- Weeding activity [5, 13]: 4
- Weeding activity ([6]; Surface, 1 kg./ha.): 3/4
- Weeding activity ([6]; Surface, 2 kg./ha.): 4
- Weeding activity ([6]; Surface, 4 kg./ha.): 4/3
- Weeding activity ([6]; Surface, 6 kg./ha.): 4
- Weeding activity [6, 11]: 4
- Weeding activity [6, 12]: 4
- Weeding activity [6, 13]: 4
- Average height ([7]; 4 kg./ha.): about 60 cm.
- Average height ([7]; 6 kg./ha.): about 60 cm.
- Shoot [10]: 0 cm.
- Stand [10]: 0%
